Consider nine molecules from patent EP0033241A2, “Pharmaceutical compositions for rectal administration” (priority 1980, dated 1981).

The nature of data set [1]: in vivo. Also on record: species or system SD strain male rats. The conditions noted are these: rat. The text has this:
The numeral 25 in the term "POE (25)" designates the average number of added moles of POE.

A short description of data set [2]: in vivo. The conditions noted are these: rat, im, 50 mg/kg, AUC^°6.
Data set [3] in a line: AUC 0 to 4 hours of cefsulodin (sodium) suppositories with polyoxyethylene cholesterol ethers (Experiment Example 4). To be noted: rat, plasma, 20 mg/kg, rectal suppository 50 mg, 10 % cefsulodin (sodium), Witepsol H-5. It counts as in vivo, rats.
Description: The anuses were closed with an adhesive agent, and blood samples were taken from the tail veins with time elapsed to determine quantitatively the plasma levels of the compounds having a β-lactam ring by means of the biological assay method.
By incorporating 10 % of cefsulodin (sodium) and 5 % of polyoxyethylene cholesterol ether as shown in Table 5 into Witepsol H-5 used as an excipient, suppositories (50 mg each) were prepared, and administered rectally to rats, in the same manner as in Experiment Example 1, to determine quantitatively the concentration levels of the drug substance in plasma, thereby calculating AUC over the period of 0 to 4 hours. The dosage was 20 mg/Kg.

Counter-ions that a name gives are not always drawn.

As a reminder, the AUC is the area under the concentration-time curve, a measure of exposure. Turning to `CC1(C)S[C@@H]2[C@H](NC(=O)[C@H](N)c3ccccc3)C(=O)N2[C@H]1C(=O)O` [Ampicillin, ampicillin], the area under the curve (AUC) in the data set “in vivo [1]” (im) worked out at 14800 ng·h/mL.

On to `Cc1nnc(SCC2=C(C(=O)O)N3C(=O)[C@@H](NC(=O)Cn4cnnn4)[C@H]3SC2)s1` [Cefazolin, cefazolin], for which the AUC in the data set “in vivo [1]” (im) is 348000 ng·h/mL.

The molecule `CO/N=C(\C(=O)N[C@@H]1C(=O)N2C(C(=O)O)=C(CSc3nnnn3C)CS[C@H]12)c1csc(N)n1` [Cefmenoxime (1/2HCl), 7β-[2-(2-aminothiazol-4-yl)-[Z]-2-methoxyimino-acetamide]-3-[(1-methyl-1H-tetrazol-5-yl)thiomethyl]-ceph-3-em-4-carboxylate.l/2hydrochloride] yielded an AUC in the data set “in vivo [1]” (im) of 190000 ng·h/mL. Moreover, the AUC at 6 h in “in vivo [2]” came out at 190000 ng·h/mL.

The molecule `CN(C)CCn1nnnc1SCC1=C(C(=O)O)N2C(=O)[C@@H](NC(=O)Cc3csc(N)n3)[C@H]2SC1` [Cefotiam, cefotiam] gave an AUC in “in vivo [1]” (im) of 38700 ng·h/mL.

Broadly, the AUC(0-t) is the area under the concentration-time curve up to a stated or last time point. Low values mean low exposure, high ones high exposure. Consider `NC(=O)c1cc[n+](CC2=C(C(=O)O)N3C(=O)[C@@H](NC(=O)[C@@H](c4ccccc4)S(=O)(=O)[O-])[C@H]3SC2)cc1` [Cefsulodin sodium, 3-(4-carbamoyl-l-pyridinio-methyl)-7β-(D-α-sulfophenylacetamide)-ceph-3-em-4-carboxylate monosodium salt], for which, in the data set “in vivo [1]” (im), the AUC was 54000 ng·h/mL. The AUC(0-t) at 4 h in data set [3] (5 % POE (10) cholesterol ether) is 30400 ng·h/mL; in data set [3] (5 % POE (20) cholesterol ether), 43000 ng·h/mL; in data set [3] (5 % POE (25) cholesterol ether), 35900 ng·h/mL; in data set [3] (5 % POE (30) cholesterol ether) it was 37900 ng·h/mL; in data set [3] (no polyoxyethylene cholesterol ether (None)) it was 500 ng·h/mL.

In turn, `CO/N=C(\C(=O)N[C@@H]1C(=O)N2C(C(=O)O)=CCS[C@H]12)c1csc(N)n1` [FK-749, cephthizoxime] came in with an AUC in “in vivo [1]” (im) of 77800 ng·h/mL.

In turn, `CO/N=C(\C(=O)N[C@@H]1C(=O)N2C(C(=O)O)=C(COC(C)=O)CS[C@H]12)c1csc(N)n1` [HR-756, cefotaxime] showed an area under the curve (AUC) in the data set “in vivo [1]” (im) of 144000 ng·h/mL.

Consider `CC1(C)S[C@@H]2[C@H](/N=C/N3CCCCCC3)C(=O)N2[C@H]1C(=O)O` [Mecillinam, 6a-[(hexahydro-lH-azepin-l-yl)-methyleneamino]penicillanic acid.sodium salt], for which the AUC in “in vivo [1]” (im) was found to be 105000 ng·h/mL.

Regarding `CC1(C)S[C@@H]2[C@H](NC(=O)C(c3ccccc3)S(=O)(=O)O)C(=O)N2[C@H]1C(=O)O` (stereo partly shown) [Sulbenicillin, sulbenicillin], the AUC worked out at 92800 ng·h/mL in “in vivo [1]” and 192000 ng·h/mL in the data set “in vivo [1]” (im).
